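The compound was tested at five concentrations on cells cultured in 96-well plates, with a 48-hour exposure period. The concentration for full growth arrest is given as TGI.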
What was measured:
Assay in all cases: NCI tumour cell line growth inhibition, 48 h
KM12 colon = tested on: KM12 colon
LOX IMVI melanoma = tested on: LOX IMVI melanoma
UACC-257 melanoma = tested on: UACC-257 melanoma
HL-60(TB) leukemia = tested on: HL-60(TB) leukemia
SF-539 CNS = tested on: SF-539 CNS
A549 NSCLC = tested on: A549 NSCLC
A498 renal = tested on: A498 renal
MCF7 breast = tested on: MCF7 breast
HOP-92 NSCLC = tested on: HOP-92 NSCLC
SNB-75 CNS = tested on: SNB-75 CNS
SNB-19 CNS = tested on: SNB-19 CNS
T-47D breast = tested on: T-47D breast
NCI/ADR-RES ovarian = tested on: NCI/ADR-RES ovarian
NCI-H522 lung = tested on: NCI-H522 lung
MDA-N = tested on: MDA-N
NCI-H460 lung = tested on: NCI-H460 lung
TK-10 renal = tested on: TK-10 renal
OVCAR-8 ovarian = tested on: OVCAR-8 ovarian
MDA-MB-435 = tested on: MDA-MB-435
MDA-MB-231 breast = tested on: MDA-MB-231 breast
IGROV1 ovarian = tested on: IGROV1 ovarian
786-0 renal = tested on: 786-0 renal
OVCAR-5 ovarian = tested on: OVCAR-5 ovarian
PC-3 prostate = tested on: PC-3 prostate
SF-268 CNS = tested on: SF-268 CNS
SK-OV-3 ovarian = tested on: SK-OV-3 ovarian
RXF 393 renal = tested on: RXF 393 renal
HOP-62 NSCLC = tested on: HOP-62 NSCLC
K-562 leukemia = tested on: K-562 leukemia
U251 CNS = tested on: U251 CNS
MOLT-4 leukemia = tested on: MOLT-4 leukemia
HCT-15 colon = tested on: HCT-15 colon
OVCAR-3 ovarian = tested on: OVCAR-3 ovarian
HCC-2998 colon = tested on: HCC-2998 colon
ACHN renal = tested on: ACHN renal
SN12C renal = tested on: SN12C renal
HCT-116 colon = tested on: HCT-116 colon
HS 578T breast = tested on: HS 578T breast
OVCAR-4 ovarian = tested on: OVCAR-4 ovarian
SK-MEL-5 melanoma = tested on: SK-MEL-5 melanoma
SW-620 colon = tested on: SW-620 colon
M14 melanoma = tested on: M14 melanoma
CCRF-CEM leukemia = tested on: CCRF-CEM leukemia
UO-31 renal = tested on: UO-31 renal
SR leukemia = tested on: SR leukemia
RPMI-8226 leukemia = tested on: RPMI-8226 leukemia
HT29 colon = tested on: HT29 colon
DU-145 prostate = tested on: DU-145 prostate
SK-MEL-2 melanoma = tested on: SK-MEL-2 melanoma
SF-295 CNS = tested on: SF-295 CNS
CAKI-1 renal = tested on: CAKI-1 renal
MALME-3M melanoma = tested on: MALME-3M melanoma
SK-MEL-28 melanoma = tested on: SK-MEL-28 melanoma
NCI-H226 lung = tested on: NCI-H226 lung
NCI-H23 lung = tested on: NCI-H23 lung
EKVX NSCLC = tested on: EKVX NSCLC
COLO 205 colon = tested on: COLO 205 colon
BT-549 breast = tested on: BT-549 breast
UACC-62 melanoma = tested on: UACC-62 melanoma

O=C1OCC=C1COC1OC(CO)C(O)C(O)C1O (stereo not given)
TGI (KM12 colon): > 100 µM | TGI (LOX IMVI melanoma): > 100 µM | TGI (UACC-257 melanoma): > 100 µM | TGI (HL-60(TB) leukemia): > 100 µM | TGI (SF-539 CNS): > 100 µM | TGI (A549 NSCLC): > 100 µM | TGI (A498 renal): > 100 µM | TGI (MCF7 breast): > 100 µM | TGI (HOP-92 NSCLC): > 100 µM | TGI (SNB-75 CNS): > 100 µM | TGI (SNB-19 CNS): > 100 µM | TGI (T-47D breast): > 100 µM | TGI (NCI/ADR-RES ovarian): > 100 µM | TGI (NCI-H522 lung): 39.3 µM | TGI (MDA-N): > 100 µM | TGI (NCI-H460 lung): > 100 µM | TGI (TK-10 renal): > 100 µM | TGI (OVCAR-8 ovarian): > 100 µM | TGI (MDA-MB-435): > 100 µM | TGI (MDA-MB-231 breast): > 100 µM | TGI (IGROV1 ovarian): > 100 µM | TGI (786-0 renal): > 100 µM | TGI (OVCAR-5 ovarian): > 100 µM | TGI (PC-3 prostate): > 100 µM | TGI (SF-268 CNS): > 100 µM | TGI (SK-OV-3 ovarian): > 100 µM | TGI (RXF 393 renal): > 100 µM | TGI (HOP-62 NSCLC): > 100 µM | TGI (K-562 leukemia): > 100 µM | TGI (U251 CNS): > 100 µM | TGI (MOLT-4 leukemia): > 100 µM | TGI (HCT-15 colon): > 100 µM | TGI (OVCAR-3 ovarian): > 100 µM | TGI (HCC-2998 colon): > 100 µM | TGI (ACHN renal): > 100 µM | TGI (SN12C renal): > 100 µM | TGI (HCT-116 colon): > 100 µM | TGI (HS 578T breast): > 100 µM | TGI (OVCAR-4 ovarian): > 100 µM | TGI (SK-MEL-5 melanoma): > 100 µM | TGI (SW-620 colon): > 100 µM | TGI (M14 melanoma): > 100 µM | TGI (CCRF-CEM leukemia): > 100 µM | TGI (UO-31 renal): > 100 µM | TGI (SR leukemia): > 100 µM | TGI (RPMI-8226 leukemia): > 100 µM | TGI (HT29 colon): > 100 µM | TGI (DU-145 prostate): > 100 µM | TGI (SK-MEL-2 melanoma): > 100 µM | TGI (SF-295 CNS): > 100 µM | TGI (CAKI-1 renal): > 100 µM | TGI (MALME-3M melanoma): > 100 µM | TGI (SK-MEL-28 melanoma): > 100 µM | TGI (NCI-H226 lung): > 100 µM | TGI (NCI-H23 lung): > 100 µM | TGI (EKVX NSCLC): > 100 µM | TGI (COLO 205 colon): > 100 µM

Clc1ccc(-c2cc(-c3cc(-c4ccc(Cl)cc4)n[nH]3)[nH]n2)cc1
TGI (UACC-257 melanoma): > 100 µM | TGI (A498 renal): > 100 µM | TGI (T-47D breast): > 100 µM | TGI (NCI-H522 lung): > 100 µM | TGI (MDA-N): > 100 µM | TGI (MDA-MB-435): > 100 µM | TGI (IGROV1 ovarian): > 100 µM | TGI (OVCAR-5 ovarian): > 100 µM | TGI (PC-3 prostate): > 100 µM | TGI (SK-OV-3 ovarian): > 100 µM | TGI (RXF 393 renal): > 100 µM | TGI (K-562 leukemia): > 100 µM | TGI (MOLT-4 leukemia): > 100 µM | TGI (OVCAR-3 ovarian): > 100 µM | TGI (ACHN renal): > 100 µM | TGI (HCT-116 colon): > 100 µM | TGI (SK-MEL-5 melanoma): > 100 µM | TGI (M14 melanoma): > 100 µM | TGI (BT-549 breast): > 100 µM | TGI (UO-31 renal): > 100 µM | TGI (DU-145 prostate): > 100 µM | TGI (SK-MEL-2 melanoma): > 100 µM | TGI (MALME-3M melanoma): > 100 µM | TGI (NCI-H226 lung): > 100 µM | TGI (NCI-H23 lung): > 100 µM | TGI (EKVX NSCLC): > 100 µM | TGI (COLO 205 colon): > 100 µM

CCCC1C(CC)C(NC)C(C#N)(C#N)C1(C#N)C#N (stereo not given)
TGI (KM12 colon): 30.9 µM | TGI (LOX IMVI melanoma): 36.1 µM | TGI (UACC-257 melanoma): 33.3 µM | TGI (HL-60(TB) leukemia): 91.8 µM | TGI (SF-539 CNS): 34.8 µM | TGI (A549 NSCLC): > 100 µM | TGI (A498 renal): 31.9 µM | TGI (MCF7 breast): > 100 µM | TGI (HOP-92 NSCLC): 32.2 µM | TGI (SNB-75 CNS): 22.5 µM | TGI (SNB-19 CNS): 48.5 µM | TGI (T-47D breast): 29 µM | TGI (NCI/ADR-RES ovarian): 59 µM | TGI (NCI-H522 lung): 33.3 µM | TGI (MDA-N): 36.1 µM | TGI (TK-10 renal): 34.6 µM | TGI (OVCAR-8 ovarian): 58.9 µM | TGI (MDA-MB-435): > 100 µM | TGI (MDA-MB-231 breast): 30.1 µM | TGI (IGROV1 ovarian): 33.4 µM | TGI (786-0 renal): 34.3 µM | TGI (OVCAR-5 ovarian): > 100 µM | TGI (PC-3 prostate): 39.9 µM | TGI (SF-268 CNS): 34.3 µM | TGI (SK-OV-3 ovarian): > 100 µM | TGI (RXF 393 renal): 28 µM | TGI (HOP-62 NSCLC): 29.2 µM | TGI (K-562 leukemia): > 100 µM | TGI (U251 CNS): 95.1 µM | TGI (MOLT-4 leukemia): 76.9 µM | TGI (HCT-15 colon): 28.7 µM | TGI (HCC-2998 colon): 32.9 µM | TGI (ACHN renal): 43.1 µM | TGI (SN12C renal): 34.5 µM | TGI (HCT-116 colon): 30.1 µM | TGI (HS 578T breast): > 100 µM | TGI (OVCAR-4 ovarian): > 100 µM | TGI (SK-MEL-5 melanoma): 24.5 µM | TGI (SW-620 colon): > 100 µM | TGI (UACC-62 melanoma): 39.2 µM | TGI (M14 melanoma): > 100 µM | TGI (CCRF-CEM leukemia): > 100 µM | TGI (UO-31 renal): 30 µM | TGI (SR leukemia): 82.3 µM | TGI (RPMI-8226 leukemia): 43.8 µM | TGI (HT29 colon): 27.6 µM | TGI (DU-145 prostate): 27.2 µM | TGI (SK-MEL-2 melanoma): 35.7 µM | TGI (SF-295 CNS): 41.9 µM | TGI (CAKI-1 renal): 25.9 µM | TGI (MALME-3M melanoma): 63.8 µM | TGI (SK-MEL-28 melanoma): 94.3 µM | TGI (NCI-H226 lung): 35.4 µM | TGI (NCI-H23 lung): 46.8 µM | TGI (EKVX NSCLC): 87.6 µM | TGI (COLO 205 colon): 26.6 µM
